Experimental data taken from patent publication US6036941A, “Fluorogenic substrates for diagnosis and photodynamic treatment of tumors” (Consiglio Nazionale Delle Ricerche, priority 1995, dated 2000).

Tests used:
[1] = system: POGB cells (bronchial microcytoma); assay: Photosensitizer accumulation in drug-resistant versus sensitive POGB cells; type: cell-based, human; details: Rose Bengal acetate 5×10^-5 to 10^-7 M, Photofrin 10^-5 M, fluorescence intensity
Procedure: (§1) Tests were also performed on cell lines derived from human tumours: POGB, from bronchial microcytoma, and IGROV, from ovarian carcinoma. In particular, for each line a comparison was made between the cells sensitive and resistant to chemotherapeutic agents. […] Results related to Rose Bengal treatment were compared with those obtained with Photofrin®, a well-establishes photosensitizer.
(§2) The cells were treated with Rose Bengal acetate at doses between 5×10^-5 and 10^-7 M, and with 10^-5 M Photofrin®. The intracellular accumulation of photosensitizer was evaluated in terms of fluorescence intensity. Giving a value of 100 to the photosensitizer amount present in each sensitive cell line, the amount of photosensitizer retained in the corresponding resistant cell line is 100% and 85% for Photofrin and 170% and 120% for Rose Bengal, in IGROV and POGB respectively. A more evident difference of the accumulation capacity between Photofrin and Rose Bengal can be observed in the case of B16 cells, a line derived from mouse melanoma. In this case the amount of Photofrin® accumulated in resistant cells is about 65% of that in sensitive ones, while the amount of Rose Bengal is about 120%.

[2] = system: lymphocytes and granulocytes; assay: Hydrolysis activity in white blood cells on smears; type: cell-based
[3] = system: rat glioma (C6) cells; assay: Phototoxicity after irradiation at 540±5 nm, cell count 24 h later; type: cell-based; details: 2 mw/cm^2, up to 2.4 J, compared with Rose Bengal (FIG. 5)
Description: The cells treated with Rose Bengal or with Rose Bengal acetate as described above were submitted to irradiation at 540±5 nm by a Xe 75 W lamp and an interference filter.
Irradiation was realised with a power of 2 mw/cm^2 for various times until the administration of a maximum dose of 2.4 J, in accordance with the protocols normally used in tests of phototoxicity. The irradiation was effected in HBSS buffer (Hank's Balanced Salt Solution, J. H. Hanks and R. E. Wallace, Proc. Natl. Exp. Biol. Med 71, 196, 1949) in the absence of the drug in the culture medium to avoid secondary effects. Twenty-four hours after irradiation the cells adhering to the slide on which they had been grown were counted. The expression of phototoxicity was defined as the ratio between the number of cells present after the treatment and those counted on the untreated controls. […] This effect relates directly to the quantity of fluorescent substance with photosensitisation activity produced by the enzyme activity, evaluated as fluorescence intensity at 580 nm (FIG. 4).

[4] = system: rat glioma (C6) cells; assay: Cellular vitality tests (trypan blue and fluorescein diacetate methods); type: cell-based; details: incubation for 4 h at concentrations up to 1×10^-4 M, no irradiation
Description: The hydrophobicity of the intracellular environment would therefore seem to create the structural condition that favours the action of the enzyme. […] The finding relative to Rose Bengal agrees with the literature (R. P. G. Feenstra and S. C. G. Tseng, Ophthalmology, 99 605, 1992).

[5] = system: purified esterase enzyme of pig liver; assay: Enzyme hydrolysis by purified pig liver esterase, followed fluorometrically; type: biochemical; details: hydrolysis in solution, phosphate buffer 0.2 M pH 6.85, 20° C., esterase 25 U/ml; read-out: enzyme hydrolysis constant Km
Procedure: To the solution of Rose Bengal acetate 3×10^-5 M in phosphate buffer 0.2 M (pH 6.85) was added the purified esterase enzyme of pig liver (Sigma Chem, Co., GB) at the final concentration of 25 U/ml. The reaction was performed at room temperature (20° C.) and the formation of the product was measured fluorometrically (excitation 525 nm, emission 565 nm). In a second group of experiments, to the reaction solution was added human albumin (Sigma Chem. Co, GB) at the concentration of 0.1 mg/ml, better to simulate the conditions of hydrophobicity to be met in the cells. In these conditions, the appearance of the fluorescence was accelerated.
The kinetics of hydrolysis was followed by determining the intensity of fluorescence at 565 nm corresponding to the peak of emission of Rose Bengal. Examples of curves of hydrolysis kinetics are shown in FIG. 3 in which the curve (a) represents the intensity of fluorescence in time of a solution of Rose Bengal acetate subjected to hydrolysis in the presence of albumin with esterase, and the curve (b) represent the intensity of fluorescence of the solution of Rose Bengal acetate with albumin, in the absence of esterase, at the concentration of 3×10^-5 M.

[6] = system: IGROV cells (ovarian carcinoma); assay: Photosensitizer accumulation in drug-resistant versus sensitive IGROV cells; type: cell-based, human; details: Rose Bengal acetate 5×10^-5 to 10^-7 M, Photofrin 10^-5 M, fluorescence intensity
Procedure: as §1, §2

[7] = Rose Bengal in blood samples of treated mice; type: in vivo; details: Swiss mice treated with 8 mg/kg
Procedure: Considering the possible systemic use of Rose Bengal acetate, the effect was evaluated of the serum esterase activity on the hydrolysis kinetics of the fluorogenic substrate. The esterase activity of the blood can induce an extracellular hydrolysis of Rose Bengal acetate. The kinetics, however, of this hydrolysis is slow enough to permit the cellular compartment to accumulate and hydrolyse the Rose Bengal acetate according to the intracellular esterase activity. In any case the hydrolysed Rose Bengal is quickly eliminated from the blood.

[8] = system: B16 cells (mouse melanoma); assay: Photosensitizer accumulation in drug-resistant versus sensitive B16 cells; type: cell-based
Procedure: as §2

[9] = system: normal fibroblast line and sarcoma-derived cell line of Galliera rats; assay: Intracellular drug accumulation, normal fibroblasts versus sarcoma-derived cells; type: cell-based, rat
Procedure: A comparison of intracellular drug accumulation was made between normal and tumour cells. As a model, a normal fibroblast line from embryos (6-10 days) of Galliera strain rats, and a stabilised cell line derived from sarcoma spontaneously growing in syngeneic Galliera rats, were used. After incubation with Rose Bengal acetate at a concentration of 5×10^-6 M for 2 hours, a ratio of intracellular photosensitizer concentration of about 16 was measured between normal and transformed cells, in terms of fluorescence intensity at 580 nm. The ratio of the esterase activity in the two cell lines was found less than the ratio shown by the photosensitizer: this can be explained by the fact that the Rose Bengal produced by the enzyme activity is a polar compound. It must be considered that in this form Rose Bengal requires an active transport mechanism to be released (E. Prosperi, A. C. Croce et al. Cytometry, 7, 70-75, 1986), and that the tumour cells are characterised by an impaired metabolic condition (J. Szollosi, P. Kertai et al. J. Histochem. Cytochem. 29, 503-510, 1982), that enhances the photosensitizer accumulation.
The same cell lines, treated with the most commonly used photosensitizer, Photofrin®, at the concentration of 2×10^-5 M for a time of 2 hours yielded a ratio value of about 8 (FIG. 6).

[10] = system: rat glioma (C6) cells; assay: Intracellular accumulation and hydrolysis kinetics in C6 cell cultures; type: cell-based
Procedure: Evaluations of the kinetics of intracellular accumulation of Rose Bengal acetate were performed on cultures of an established cell line of rat glioma (C6) which grows as a monolayer. This cell line is widely used for pharmaco-kinetic studies of fluorescent substances with photosensitisation activity by virtue of its rapid proliferation activity and the possibility of modifying the physiological activities of the cells.
It is particularly important that, principally in short-term treatments, a continuous increase of intracellular Rose Bengal is recorded in the cells treated with the acetylated species, even when the cells are transferred into a medium devoid of this substance. This can easily be interpreted in terms of the balance between the processes of incorporation and hydrolysis. Since the process of incorporation is rapider than that of hydrolysis, inside the cells an accumulation is created of hydrolysable substance on which the enzyme can continue to effect its action through time.
Further, it is interesting to note that the kinetics of hydrolysis of Rose Bengal acetate is accelerated by the cellular environment: the Km passes from about 10^-3 M in conditions of hydrolysis in solution to about 10^-6 M in the cells.

Row | Compound | amount of photosensitizer retained in resistant cell line (sensitive line = 100) [1] | hydrolysis activity in lymphocytes, less than in granulocytes [2] | phototoxicity (cell survival) [3] | cell mortality [4] | Km [5] | amount of photosensitizer retained in resistant cell line (sensitive line = 100) [6] | Rose Bengal in the blood [7] | amount accumulated in resistant cells relative to sensitive ones [8] | ratio of intracellular photosensitizer concentration between normal and transformed cells ([9]; 2 h, 5 µM) | Km [10] | ratio of intracellular photosensitizer concentration between normal and transformed cells ([9]; 2×10^-5 M for 2 hours)
1 | CC(=O)Oc1c(I)cc2c(-c3c(Cl)c(Cl)c(Cl)c(Cl)c3C(=O)O)c3cc(I)c(=O)c(I)c-3oc2c1I [Rose Bengal acetate] | 120% | 40% | strong phototoxic effect | no significant cell mortality | ~1000 µM | 170% | do not present appreciable quantities | about 120% | about 16 | ~1 µM | 
2 | O=C(O)c1c(Cl)c(Cl)c(Cl)c(Cl)c1-c1c2cc(I)c(=O)c(I)c-2oc2c(I)c(O)c(I)cc12 [Rose Bengal, reference compound] |  |  |  | no significant cell mortality |  |  |  |  |  |  | 
3 | CC(=O)Oc1ccc2c(c1)Oc1cc(OC(C)=O)ccc1C21OC(=O)c2ccccc21 [diacetate fluorescein, reference compound] |  |  |  |  | 5 µM |  |  |  |  |  | 
4 | Photofrin® [reference compound] | 85% |  |  |  |  | 100% |  | about 65% |  |  | about 8
